Measurements: EPA's ToxRefDB 2

Assays:
rat [1] = settings: Combined chronic toxicity/carcinogenicity, wistar, Oral, Feed, dose end: 104 week, group: systemic
mouse [2] = settings: Subchronic oral toxicity in rodents, other, Feed, dose end: 13 week, group: systemic
rat [3] = settings: Subchronic oral toxicity in rodents, wistar, Feed, dose end: 13 week, group: systemic
rabbit [4] = settings: Prenatal developmental toxicity study, new zealand white, Oral, Gavage/Intubation, dose end: 19 GD
rabbit [5] = settings: Prenatal developmental toxicity study, new zealand white, Oral, Gavage/Intubation, dose end: 19 GD; remark: listed apart in the source
rat [6] = settings: Multigenerational reproductive toxicity study, sprague dawley, Oral, [Not Specified], dose end: 2 generation
rat [7] = settings: Combined chronic toxicity/carcinogenicity, sprague dawley, Oral, Feed, dose end: 2 year, group: systemic
mouse [8] = settings: Combined chronic toxicity/carcinogenicity, b6c3f1, Oral, Feed, dose end: 2 year, group: systemic
[9] = systemic / hematology / erythrocyte (rbc) count differential / erythrocyte (rbc) + systemic / hematology / hematocrit (hct) / hematocrit (…
[10] = systemic / clinical chemistry / urea nitrogen / urea nitrogen
[11] = systemic / clinical chemistry / urea nitrogen / urea nitrogen + systemic / clinical chemistry / alanine aminotransferase (alt/sgpt) / …
[12] = systemic / in life observation / body weight / body weight gain + systemic / clinical chemistry / cholesterol / cholesterol
[13] = group: developmental, developmental / developmental malformation / brain / dilated cerebral ventricle + developmental / developmental malformation / brain / …
[14] = group: maternal, systemic / in life observation / body weight / body weight + systemic / in life observation / body weight / body weight gain + reproductive…
[15] = group: developmental, developmental / developmental malformation / brain / hydrocephaly
[16] = group: maternal, reproductive / reproductive performance / postimplantation loss / postimplantation loss
[17] = group: maternal, reproductive / reproductive performance / postimplantation loss / postimplantation loss + reproductive / reproductive performance / aborted…
[18] = group: offspring, developmental / offspring survival late / viability index / viability index + systemic / in life observation / body weight / offspring (pup…
[19] = group: parental, systemic / in life observation / body weight / body weight + systemic / in life observation / body weight / body weight gain + systemic / …
[20] = systemic / pathology microscopic / liver / hyperplasia
[21] = systemic / pathology microscopic / liver / hyperplasia + systemic / in life observation / body weight / body weight + systemic / pathology …
[22] = systemic / in life observation / mortality / mortality + systemic / in life observation / body weight / body weight

C[N+](C)(C)CCO.O=c1ccc([O-])n[nH]1
LEL (rat [1]; [9]): 18.1 mg/kg/day | NEL (rat [1]; [9]): < 18.1 mg/kg/day | LOAEL (rat [1]; systemic / in life observation / body weight / body weight + systemic / in life observation / body weight / body weight gain): 1960 mg/kg/day | NOAEL (rat [1]; systemic / in life observation / body weight / body weight + systemic / in life observation / body weight / body weight gain + systemic / …): 183 mg/kg/day | LEL (mouse [2]; [10]): 5620 mg/kg/day | LOAEL (mouse [2]; [10]): 5620 mg/kg/day | NEL (mouse [2]; [11]): 1100 mg/kg/day | NOAEL (mouse [2]; [11]): 1100 mg/kg/day | LOAEL (rat [3]; systemic / in life observation / body weight / body weight gain): 4760 mg/kg/day | LEL (rat [3]; [12]): 4760 mg/kg/day | NEL (rat [3]; [12]): 1060 mg/kg/day | NOAEL (rat [3]; [12]): 1060 mg/kg/day

C1CC[CH]([Sn+]([CH]2CCCCC2)[CH]2CCCCC2)CC1.[OH-] [Cyhexatin]
LEL (rabbit [4]; [13]): 0.75 mg/kg/day | LOAEL (rabbit [4]; [13]): > 3 mg/kg/day | NEL (rabbit [4]; [13]): < 0.75 mg/kg/day | NOAEL (rabbit [4]; [13]): ≥ 3 mg/kg/day | LOAEL (rabbit [4]; group: maternal, systemic / in life observation / body weight / body weight + systemic / in life observation / body weight / body weight gain): 3 mg/kg/day | LEL (rabbit [4]; [14]): 3 mg/kg/day | NEL (rabbit [4]; [14]): 0.75 mg/kg/day | NOAEL (rabbit [4]; [14]): 0.75 mg/kg/day | LEL (rabbit [5]; [15]): 3 mg/kg/day | LOAEL (rabbit [5]; [15]): > 3 mg/kg/day | NEL (rabbit [5]; [15]): 1 mg/kg/day | NOAEL (rabbit [5]; [15]): ≥ 3 mg/kg/day | LEL (rabbit [5]; [16]): 1 mg/kg/day | LOAEL (rabbit [5]; [16]): 1 mg/kg/day | NEL (rabbit [5]; [17]): 0.5 mg/kg/day | NOAEL (rabbit [5]; [17]): 0.5 mg/kg/day | LEL (rat [6]; [18]): 6 mg/kg/day | LOAEL (rat [6]; [18]): > 6 mg/kg/day | NEL (rat [6]; [18]): 0.5 mg/kg/day | NOAEL (rat [6]; [18]): ≥ 6 mg/kg/day | LEL (rat [6]; group: parental, systemic / in life observation / body weight / body weight + systemic / in life observation / body weight / body weight gain): 0.5 mg/kg/day | LOAEL (rat [6]; [19]): > 6 mg/kg/day | NEL (rat [6]; [19]): 0.1 mg/kg/day | NOAEL (rat [6]; [19]): ≥ 6 mg/kg/day | LOAEL (rat [7]; [20]): 1 mg/kg/day | NOAEL (rat [7]; [20]): < 1 mg/kg/day | LEL (rat [7]; [21]): 1 mg/kg/day | NEL (rat [7]; [21]): < 1 mg/kg/day | LOAEL (mouse [8]; systemic / in life observation / mortality / mortality): 6 mg/kg/day | LEL (mouse [8]; [22]): 6 mg/kg/day | NEL (mouse [8]; [22]): 3 mg/kg/day | NOAEL (mouse [8]; [22]): 3 mg/kg/day
